This note sets out measurements from patent US10526325B2, “Bicyclic heterocyclic derivatives” (Merck Patent GmbH, priority 2015, dated 2020).

One test has as its target PDHK2 (Homo sapiens (Human), UniProt Q15119). Kind of test: Biochemical activity testing of PDHK2: PDC inactivation assay. Particulars: human rec PDHK2, porcine heart PDC, 5 μM ATP, read-out: IC50 PDHK2 (enzyme assay). An excerpt:
Biochemical Activity Testing of PDHK2: PDC Inactivation Assay
The biochemical activity assay for PDHK2 is based on the inactivation of PDC through phosphorylation by PDHK2. The assay is run in two steps: the enzymatic PDHK2 reaction in which isolated PDC is phosphorylated by PDHK2 with ATP as co-substrate and the PDC activity assay in which pyruvate and NAD are converted to acetyl-CoA and NADH. The PDC activity correlates to the increase in NADH and thereby is detectable directly via the increasing fluorescence signal (Exc 340 nm, Em 450 nm). Inhibition of PDHK2 results in a lower phosphorylation status and thereby a less decrease in activity of PDC and a stronger increase in NADH fluorescence signal.
The PDC inactivation assay is performed in Greiner 384-well microtiter plates and is used for high throughput screen. 4 μl of PDHK2 (human, rec, Carna Bioscience, 10 ng/μl-137 nM final concentration) and PDC (isolated from porcine heart, Sigma-Aldrich, 20 mU/ml final concentration) are incubated in the absence or presence of the test compound (10 dilution concentrations) for 30 min at room temperature in kinase buffer (15 mM potassium phosphate buffer, pH 7.0, 60 mM KCl, 1.5 mM DTT, 2.5 mM MgCl2, 0.0125% (w/v) BSA, 0.125% Pluronic F-68). The kinase reaction is started by the addition of 4 μl ATP substrate solution (fc 5 μM in kinase buffer). After 30 min incubation at 37° C. 40 μl of PDC reaction solution (100 mM Tris/HCl, pH 7.8, 0.5 mM EDTA, 1 mM MgCl2, 50 mM NaF, 0.25 mM Coenzyme A, 5 mM pyruvate, 1 mM NAD, 5 mM DTT, 1 mM thiamine pyrophosphate) is added. The first fluorescence measurement is performed on a Perkin Elmer Envision (Exc 340 nm, Em 450 nm). The reaction is incubated for 45 min at room temperature. Afterwards a second fluorescence measurement is performed and the PDC activity is calculated by the difference between both measurements. As full value for the PDHK2 assay the inhibitor-free PDHK2 reaction is used. The pharmacological zero value used is DCA (Sigma-Aldrich) in a final concentration of 3 mM. The inhibitory values […] were determined using either the program Symyx Assay Explorer® or Condosseo® from GeneData.

The target in a further test is human PDHK2 (12-407) (Homo sapiens (Human), UniProt Q15119). Kind of test: Isothermal titration calorimetry (ITC) binding. Particulars: ITC at 30° C., pH 7.5. Here is the method:
Isothermal Titration Calorimetry
ITC measurements were performed with a VP-ITC micro calorimeter (Microcal, LLC/GE Healthcare Bio-Sciences Aft Uppsala, Sweden). In general titrations were performed by titrating the protein (50 μM) to the test compound (5 μM) in 12 μl injections. All binding experiments were carried out at 30° C. In general the test compounds were diluted form DMSO stock solutions into the measurement buffer with a maximum final concentration of 1% DMSO. The measurement buffer was 20 mM HEPES, 135 mM KCl, 1 mM TCEP, 2 mM MgCl2, 15 mM NaH2PO4, pH 7.5. The human PDHK2 (12-407) was produced in E. coli as his-tagged protein and purified by affinity chromatography. The tag was removed by side specific proteolysis. Before titration the protein buffer was changed to the measurement buffer containing the same DMSO concentration as the test compound dilution. ITC data analysis was performed using Origin 7 calorimetry software from the same supplier. For most measurements a binding model of one binding site was assumed. According to the applied mathematical model it is possible to calculate the binding constant (KA), the observed binding enthalpy (ΔH^obs) as well as the stoichiometry (N) of the formed complex.
Preceding analysis the raw data was corrected for the heats of dilution by extrapolating from the saturation value from the end of titration. In order to allow for direct comparison between the respective experimental series and protein preparations the protein concentration was corrected by referencing titrations to a well behaved standard inhibitor. The apparent stoichiometry values defined the fraction of binding competent protein and compensated for relative errors in protein concentration measurements. This corrected protein concentration was used to set up ITC experiment series with test compounds. Any deviations from ideal 1:1 stoichiometry observed here were attributed to errors in compound concentration. This nominal compound concentration was corrected as well to achieve 1:1 stoichiometry in the fit.

Test [1] deals with PDH-E1alpha (pSer300) in HEK293T cells. Kind of test: Cellular immunofluorescence assay, PDH-E1alpha (pSer300) in HEK293T cells. Particulars: Homo sapiens, HEK-293T, 5 hours incubation, anti-PDH-E1alpha (pSer300) immunofluorescence, read-out: IC50 (cell data). It is filed as cell-based, human. Here is the method:
Cellular Assay for Determination of Compound Activities
Compound activities were determined in a cellular immunofluorescence assay. Human HEK293T cells were seeded into black 384-well plates with clear bottom and grown overnight.
Next day, test compounds were added to the wells and the plates incubated for 5 hours. Following this, cells were fixed with formaldehyde, permeabilised and blocked. The primary antibody, Anti-PDH-E1alpha (pSer300), AP1064 (Merck Millipore) was added and incubated overnight in the plate wells. Next, cells were washed and the secondary antibody, Alexa Fluor 488, goat anti-rabbit ab (A-11008, Invitrogen) was added together with Hoechst 33258 (H3569, Invitrogen) and incubated for 1 hour in the plate wells. Finally, cells were washed and the plates were measured on the laser scanning cytometer acumen hci (TTpLabtech).
The raw data were normalized against a pharmacological inhibitor control and dose response curves were generated by plotting the percent effect values using the software package Genedata screener (Genedata).

SMILES strings stand for the structures.

Consider `CC1CN(C(=O)[C@@](C)(O)C(F)(F)F)Cc2cnn(-c3ccc(Cl)cc3)c21` (stereo partly drawn) [Compound A9, (2R)-1-[1-(4-chlorophenyl)-7-methyl-6,7-dihydro-4H-pyrazolo[4,3-c]pyridin-5-yl]-3,3,3-trifluoro-2-hydroxy-2-methyl-propan-1-one], for which the IC50 (at PDHK2; in test [1]) was below 0.3 µM throughout. The molecule further came in with a Kd at human PDHK2 (12-407) below 0.3 µM.
Take `C[C@@H]1CN(C(=O)[C@@](C)(O)C(F)(F)F)Cc2cnn(-c3ccc(Cl)cc3)c21` [Compound A10, (R)-1-[(R)-1-(4-Chloro-phenyl)-7-methyl-1,4,6,7-tetrahydro-pyrazolo[4,3-c]pyridin-5-yl]-3,3,3-trifluoro-2-hydroxy-2-methyl-propan-1-one]: the IC50 (on PDHK2; in test [1]) was below 0.3 µM each time. The Kd on human PDHK2 (12-407) was below 0.3 µM.
Regarding `C[C@H]1CN(C(=O)[C@@](C)(O)C(F)(F)F)Cc2cnn(-c3ccc(Cl)cc3)c21` [Compound A11, (R)-1-[(S)-1-(4-Chloro-phenyl)-7-methyl-1,4,6,7-tetrahydro-pyrazolo[4,3-c]pyridin-5-yl]-3,3,3-trifluoro-2-hydroxy-2-methyl-propan-1-one], the IC50 was in the range of 3 to 50 µM on PDHK2 and 0.3 to 3 µM in test [1]. For the same molecule, the Kd on human PDHK2 (12-407) lay in the range of 0.3 to 3 µM.
Regarding `CC1CN(C(=O)[C@@](C)(O)C(F)(F)F)Cc2cnn(-c3ccc(F)cc3)c21` (stereo partly drawn) [Compound A12, (2R)-3,3,3-trifluoro-1-[1-(4-fluorophenyl)-7-methyl-6,7-dihydro-4H-pyrazolo[4,3-c]pyridin-5-yl]-2-hydroxy-2-methyl-propan-1-one], the IC50 (at PDHK2; in test [1]) was below 0.3 µM each time. Besides, the Kd on human PDHK2 (12-407) was below 0.3 µM.
With `CC1CN(C(=O)[C@@](C)(O)C(F)(F)F)Cc2cn(-c3ccc(F)cc3)nc21` (stereo partly drawn) [Compound A13, (2R)-3,3,3-trifluoro-1-[2-(4-fluorophenyl)-7-methyl-6,7-dihydro-4H-pyrazolo[4,3-c]pyridin-5-yl]-2-hydroxy-2-methyl-propan-1-one], the IC50 on PDHK2 fell in the range of 0.3 to 3 µM; in test [1] it was 3 to 50 µM. Besides, on human PDHK2 (12-407), the dissociation constant Kd fell in the range of 0.3 to 3 µM.
For the molecule `C[C@@H]1CN(C(=O)[C@@](C)(O)C(F)(F)F)Cc2cnn(-c3ccc(F)cc3)c21` [Compound A14, (R)-3,3,3-Trifluoro-1-[(R)-1-(4-fluoro-phenyl)-7-methyl-1,4,6,7-tetrahydro-pyrazolo[4,3-c]pyridin-5-yl]-2-hydroxy-2-methyl-propan-1-one], the IC50 (on PDHK2; in test [1]) was below 0.3 µM in each case. The molecule further returned a Kd at human PDHK2 (12-407) below 0.3 µM.
As for `CC1CN(C(=O)[C@@](C)(O)C(F)(F)F)Cc2cnn(-c3ccccc3)c21` (stereo partly drawn) [Compound A16, (R)-3,3,3-Trifluoro-2-hydroxy-2-methyl-1-(7-methyl-1-phenyl-1,4,6,7-tetra-hydro-pyrazolo[4,3-c]pyridin-5-yl)-propan-1-one], the IC50 (on PDHK2; in test [1]) was below 0.3 µM in each case. Also, at human PDHK2 (12-407), the Kd is below 0.3 µM.
Regarding `CC1CN(C(=O)[C@@](C)(O)C(F)(F)F)Cc2cn(-c3ccccc3)nc21` (stereo partly drawn) [Compound A17, (R)-3,3,3-Trifluoro-2-hydroxy-2-methyl-1-(7-methyl-2-phenyl-2,4,6,7-tetra-hydro-pyrazolo[4,3-c]pyridin-5-yl)-propan-1-one], the IC50 (on PDHK2; in test [1]) was 0.3 to 3 µM in each case. Moreover, the Kd at human PDHK2 (12-407) was in the range of 0.3 to 3 µM.
In the case of `C[C@@H]1CN(C(=O)[C@@](C)(O)C(F)(F)F)Cc2cnn(-c3ccccc3)c21` [Compound A18, (R)-3,3,3-Trifluoro-2-hydroxy-2-methyl-1-((R)-7-methyl-1-phenyl-1,4,6,7-tetrahydro-pyrazolo[4,3-c]pyridin-5-yl)-propan-1-one], the IC50 (at PDHK2; in test [1]) was below 0.3 µM each time. The molecule also had a Kd at human PDHK2 (12-407) below 0.3 µM.
As for `C[C@@H]1CN(C(=O)[C@@](C)(O)C(F)(F)F)Cc2cnn(-c3ccc(F)cc3F)c21` [Compound A20, (R)-1-[(R)-1-(2,4-Difluoro-phenyl)-7-methyl-1,4,6,7-tetrahydro-pyrazolo[4,3-c]pyridin-5-yl]-3,3,3-trifluoro-2-hydroxy-2-methyl-propan-1-one], the IC50 (at PDHK2; in test [1]) was below 0.3 µM in each case. For the same molecule, the Kd on human PDHK2 (12-407) is below 0.3 µM.
`C[C@@H]1CN(C(=O)[C@@](C)(O)C(F)(F)F)Cc2cnn(C(C)(C)C)c21` [Compound A22, (R)-1-((R)-1-tert-Butyl-7-methyl-1,4,6,7-tetrahydro-pyrazolo[4,3-c]pyridin-5-yl)-3,3,3-trifluoro-2-hydroxy-2-methyl-propan-1-one]: the IC50 (on PDHK2; in test [1]) was below 0.3 µM throughout. Besides, the Kd on human PDHK2 (12-407) was below 0.3 µM.
In the case of `C[C@@H]1CN(C(=O)[C@@](C)(O)C(F)(F)F)Cc2cnn(-c3ccccc3F)c21` [Compound A24, (R)-3,3,3-Trifluoro-1-[(R)-1-(2-fluoro-phenyl)-7-methyl-1,4,6,7-tetrahydro-pyrazolo[4,3-c]pyridin-5-yl]-2-hydroxy-2-methyl-propan-1-one], the IC50 (at PDHK2; in test [1]) was below 0.3 µM in each case. The molecule further registered a Kd on human PDHK2 (12-407) below 0.3 µM.
As for `C[C@@H]1CN(C(=O)[C@@](C)(O)C(F)(F)F)Cc2cn[nH]c21` [Compound A28, (R)-3,3,3-Trifluoro-2-hydroxy-2-methyl-1-((R)-7-methyl-1,4,6,7-tetrahydro-pyrazolo[4,3-c]pyridin-5-yl)-propan-1-one], the IC50 on PDHK2 lay within 0.3 to 3 µM; in test [1], 3 to 50 µM. This molecule also displayed a Kd at human PDHK2 (12-407) below 0.3 µM.
Regarding `C[C@@H]1CN(C(=O)[C@@](C)(O)C(F)(F)F)Cc2cnn(-c3ncccc3F)c21` [Compound A32, (R)-3,3,3-Trifluoro-1-[(R)-1-(3-fluoro-pyridin-2-yl)-7-methyl-1,4,6,7-tetrahydro-pyrazolo[4,3-c]pyridin-5-yl]-2-hydroxy-2-methyl-propan-1-one], the IC50 (at PDHK2; in test [1]) was below 0.3 µM in each case. In addition, at human PDHK2 (12-407), the Kd is below 0.3 µM.
Take `C[C@@H]1CN(C(=O)[C@@](C)(O)C(F)(F)F)Cc2cnn(-c3ncc(F)cc3F)c21` [Compound A34, (R)-1-[(R)-1-(3,5-Difluoro-pyridin-2-yl)-7-methyl-1,4,6,7-tetrahydro-pyrazolo[4,3-c]pyridin-5-yl]-3,3,3-trifluoro-2-hydroxy-2-methyl-propan-1-one]: the IC50 (at PDHK2; in test [1]) was below 0.3 µM throughout. The Kd on human PDHK2 (12-407) is below 0.3 µM.

The term IC50 denotes the midpoint of a concentration-inhibition curve. Broadly, the Kd is the free concentration of one partner at which half of the binding sites on the other are occupied at equilibrium, for simple one-to-one binding. A low value points to tighter binding.
